Species: Rattus norvegicus
Experiment: Open TG-GATES - Regimen: Single
Assay type: toxicity, organism-based, Sprague-Dawley
Set-up: regimen Single, gender Male, age 6 weeks
Conditions: in vivo, po, 0 mg/kg, route gavage, dose level Control; for APTT / Bas / Eos / Fbg / Hb / Ht / Lym / MCH / MCHC / MCV / Mono / Neu / PT / Plat / RBC / Ret / WBC: tissue Blood; for KIDNEY_L / KIDNEY_R / KIDNEY_TOTAL: tissue Kidney; for LIVER: tissue Liver; for A/G / ALP / ALT / AST / BUN / CRE / Ca / Cl / DBIL / GLC / IP / K / LDH / Na / PL / RALB / TBIL / TC / TG / TP / gamma-GTP: tissue Plasma

Compound: CC(=O)[C@@]1(O)CC[C@H]2[C@@H]3C=C(Cl)C4=CC(=O)CC[C@]4(C)[C@H]3CC[C@@]21C [CHLORMADINONE]
- TERMINAL_BW (3 h): 219.1 g
- APTT (3 h): 23.2 s
- Bas (3 h): 0%
- Eos (3 h): 0.6%
- Fbg (3 h): 294.4 mg/dL
- Hb (3 h): 13.3 g/dL
- Ht (3 h): 41%
- Lym (3 h): 83.4%
- MCH (3 h): 20.4 pg
- MCHC (3 h): 32.3%
- MCV (3 h): 63.1 fL
- Mono (3 h): 2.2%
- Neu (3 h): 13.2%
- PT (3 h): 15.5 s
- Plat (3 h): 111.7 x10_4/uL
- RBC (3 h): 650.2 x10_4/ul
- Ret (3 h): 8%
- WBC (3 h): 78.7 x10_2/uL
- KIDNEY_L (3 h): 1 g
- KIDNEY_R (3 h): 1 g
- KIDNEY_TOTAL (3 h): 2 g
- LIVER (3 h): 10 g
- A/G (3 h): 1.2
- ALP (3 h): 1607 IU/L
- ALT (3 h): 42 IU/L
- AST (3 h): 77.8 IU/L
- BUN (3 h): 13.4 mg/dL
- CRE (3 h): 0.2 mg/dL
- Ca (3 h): 10.8 mg/dL
- Cl (3 h): 105.2 meq/L
- DBIL (3 h): 0 mg/dL
- GLC (3 h): 180 mg/dL
- IP (3 h): 8.1 mg/dL
- K (3 h): 4.3 meq/L
- LDH (3 h): 163.6 IU/L
- Na (3 h): 142.2 meq/L
- PL (3 h): 130.6 mg/dL
- RALB (3 h): 3 g/dL
- TBIL (3 h): 0.02 mg/dL
- TC (3 h): 71.8 mg/dL
- TG (3 h): 63.4 mg/dL
- TP (3 h): 5.4 g/dL
- gamma-GTP (3 h): 1.8 IU/L
- TERMINAL_BW (6 h): 216.7 g
- APTT (6 h): 23.8 s
- Bas (6 h): 0%
- Eos (6 h): 0.6%
- Fbg (6 h): 293.2 mg/dL
- Hb (6 h): 13.3 g/dL
- Ht (6 h): 41.1%
- Lym (6 h): 80.6%
- MCH (6 h): 20.6 pg
- MCHC (6 h): 32.3%
- MCV (6 h): 63.8 fL
- Mono (6 h): 2.8%
- Neu (6 h): 15.4%
- PT (6 h): 16.1 s
- Plat (6 h): 112 x10_4/uL
- RBC (6 h): 643.6 x10_4/ul
- Ret (6 h): 7.8%
- WBC (6 h): 116.8 x10_2/uL
- KIDNEY_L (6 h): 0.9 g
- KIDNEY_R (6 h): 1 g
- KIDNEY_TOTAL (6 h): 2 g
- LIVER (6 h): 9.2 g
- A/G (6 h): 1.2
- ALP (6 h): 1313.8 IU/L
- ALT (6 h): 40.8 IU/L
- AST (6 h): 74.6 IU/L
- BUN (6 h): 12.8 mg/dL
- CRE (6 h): 0.1 mg/dL
- Ca (6 h): 10.5 mg/dL
- Cl (6 h): 105.4 meq/L
- DBIL (6 h): 0 mg/dL
- GLC (6 h): 190.8 mg/dL
- IP (6 h): 9.3 mg/dL
- K (6 h): 4.4 meq/L
- LDH (6 h): 174.8 IU/L
- Na (6 h): 141.2 meq/L
- PL (6 h): 132.6 mg/dL
- RALB (6 h): 2.9 g/dL
- TBIL (6 h): 0.022 mg/dL
- TC (6 h): 73.2 mg/dL
- TG (6 h): 48.6 mg/dL
- TP (6 h): 5.3 g/dL
- gamma-GTP (6 h): 1.2 IU/L
- TERMINAL_BW (9 h): 217.4 g
- APTT (9 h): 23.3 s
- Bas (9 h): 0%
- Eos (9 h): 0.8%
- Fbg (9 h): 309.2 mg/dL
- Hb (9 h): 12.9 g/dL
- Ht (9 h): 39.8%
- Lym (9 h): 80%
- MCH (9 h): 20.5 pg
- MCHC (9 h): 32.3%
- MCV (9 h): 63.4 fL
- Mono (9 h): 2.6%
- Neu (9 h): 15.8%
- PT (9 h): 15.6 s
- Plat (9 h): 123.4 x10_4/uL
- RBC (9 h): 628 x10_4/ul
- Ret (9 h): 8.2%
- WBC (9 h): 100.7 x10_2/uL
- KIDNEY_L (9 h): 1 g
- KIDNEY_R (9 h): 1 g
- KIDNEY_TOTAL (9 h): 2 g
- LIVER (9 h): 9.4 g
- A/G (9 h): 1.3
- ALP (9 h): 1276.4 IU/L
- ALT (9 h): 36.8 IU/L
- AST (9 h): 70.2 IU/L
- BUN (9 h): 13.6 mg/dL
- CRE (9 h): 0.2 mg/dL
- Ca (9 h): 10.5 mg/dL
- Cl (9 h): 104.8 meq/L
- DBIL (9 h): 0 mg/dL
- GLC (9 h): 202.6 mg/dL
- IP (9 h): 9.6 mg/dL
- K (9 h): 4.1 meq/L
- LDH (9 h): 170 IU/L
- Na (9 h): 141.2 meq/L
- PL (9 h): 128.4 mg/dL
- RALB (9 h): 3 g/dL
- TBIL (9 h): 0.02 mg/dL
- TC (9 h): 70.4 mg/dL
- TG (9 h): 69.8 mg/dL
- TP (9 h): 5.3 g/dL
- gamma-GTP (9 h): 1.6 IU/L
- TERMINAL_BW (24 h): 233 g
- APTT (24 h): 23.5 s
- Bas (24 h): 0%
- Eos (24 h): 0.8%
- Fbg (24 h): 308.8 mg/dL
- Hb (24 h): 13.3 g/dL
- Ht (24 h): 40.9%
- Lym (24 h): 82.8%
- MCH (24 h): 20.5 pg
- MCHC (24 h): 32.5%
- MCV (24 h): 63.1 fL
- Mono (24 h): 2.2%
- Neu (24 h): 13.4%
- PT (24 h): 15.9 s
- Plat (24 h): 115.3 x10_4/uL
- RBC (24 h): 649.2 x10_4/ul
- Ret (24 h): 7.8%
- WBC (24 h): 120.1 x10_2/uL
- KIDNEY_L (24 h): 1 g
- KIDNEY_R (24 h): 1 g
- KIDNEY_TOTAL (24 h): 2 g
- LIVER (24 h): 11 g
- A/G (24 h): 1.2
- ALP (24 h): 1565 IU/L
- ALT (24 h): 45.4 IU/L
- AST (24 h): 73.6 IU/L
- BUN (24 h): 17.8 mg/dL
- CRE (24 h): 0.2 mg/dL
- Ca (24 h): 10.9 mg/dL
- Cl (24 h): 105.4 meq/L
- DBIL (24 h): 0 mg/dL
- GLC (24 h): 197.8 mg/dL
- IP (24 h): 7.3 mg/dL
- K (24 h): 4.7 meq/L
- LDH (24 h): 219 IU/L
- Na (24 h): 140.6 meq/L
- PL (24 h): 166 mg/dL
- RALB (24 h): 3 g/dL
- TBIL (24 h): 0.01 mg/dL
- TC (24 h): 85 mg/dL
- TG (24 h): 115 mg/dL
- TP (24 h): 5.5 g/dL
- gamma-GTP (24 h): 1 IU/L
